This passage reports IC50 results from ChEMBL document CHEMBL4622928, “Discovery of 5-(4-methylpiperazin-1-yl)-2-nitroaniline derivatives as a new class of SIRT6 inhibitors” (Bioorg Med Chem Lett, 2020).

The assay concerns the target NAD-dependent protein deacylase sirtuin-6 (Homo sapiens, UniProt Q8N6T7). In words: Inhibition of SIRT6 (unknown origin) using Ac-RYQK(Ac)-AMC as substrate by Fluor de Lys assay.

NAD-dependent protein deacylase sirtuin-6, sequence (Q8N6T7 whole entry): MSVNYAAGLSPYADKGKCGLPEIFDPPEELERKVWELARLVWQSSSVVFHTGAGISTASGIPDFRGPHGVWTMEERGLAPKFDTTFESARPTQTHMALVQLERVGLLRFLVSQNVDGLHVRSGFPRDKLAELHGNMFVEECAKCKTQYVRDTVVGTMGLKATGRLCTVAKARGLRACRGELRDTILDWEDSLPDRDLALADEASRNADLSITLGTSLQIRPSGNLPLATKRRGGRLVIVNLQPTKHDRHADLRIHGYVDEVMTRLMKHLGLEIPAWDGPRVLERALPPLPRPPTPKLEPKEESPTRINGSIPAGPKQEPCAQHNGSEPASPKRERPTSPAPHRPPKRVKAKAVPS

`CN1CCN(c2ccc([N+](=O)[O-])c(NC(=O)c3cc(Cl)nc4ccccc34)c2)CC1` registered an IC50 of 12.4 µM. That is a double-digit micromolar value. For `CN1CCN(c2ccc([N+](=O)[O-])c(C(=O)Nc3cccc4ccccc34)c2)CC1` the value was 16.8 µM; for `CN1CCN(c2ccc([N+](=O)[O-])c(C(F)(F)F)c2)CC1`, 21.1 µM; for `CN1CCN(c2ccc([N+](=O)[O-])c(NCc3ccccc3)c2)CC1`, 12.5 µM. In turn, `CN1CCN(c2ccc([N+](=O)[O-])c(C(=O)NCc3ccccc3)c2)CC1` had an IC50 of 17.5 µM. `COC(=O)c1cc(N2CCN(C)CC2)ccc1[N+](=O)[O-]` had an IC50 of 9.46 µM. For `COc1cc(N2CCN(C)CC2)ccc1[N+](=O)[O-]` the value was 9.09 µM. Then `CN1CCN(c2ccc([N+](=O)[O-])cc2)CC1`, with 21.9 µM; and `CN1CCN(c2ccc([N+](=O)[O-])c(O)c2)CC1`, with 11 µM; and `CN1CCN(c2ccc([N+](=O)[O-])c(C(=O)Nc3ccc(Oc4ccccc4)cc3)c2)CC1`, with 20.9 µM.

The IC50 is the concentration that gives 50% inhibition. Low readings indicate inhibition by little substance, high ones a need for much substance.
